# Bridge positions count the residues as written; N and C are the ends. Square brackets hold non-standard residues; d marks the D form. Peptide text beside a SMILES is read from it. * marks the point of attachment. Bip = N[C@@H](Cc1ccc(-c2ccccc2)cc1)C(=O)O; Phe(3-Me) = Cc1cccc(C[C@H](N)C(=O)O)c1; Cha = N[C@@H](CC1CCCCC1)C(=O)O; hSer = N[C@@H](CCO)C(=O)O; Carboxymethyl = O=C(O)C*; Orn = NCCC[C@H](N)C(=O)O; Aun = NCCCCCCCCCCC(=O)O; Dab = NCC[C@H](N)C(=O)O; Dap = NC[C@H](N)C(=O)O
# Biological target: T1, PD-1/PD-L1 interaction (PE-labeled human PD-L1-Ig binding to Jurkat cell line over-expressing human PD-1) (Homo sapiens, UniProt Q15116)
# T1 construct: expressed in transfected cells; host or cells: Jurkat
# Experiment: Jurkat-PD-1 Cell Binding High-Content Screening Assay (CBA)
# Assay type: cell-based
# Conditions: Jurkat cell line over-expressing human PD-1; PE-labeled PD-L1-Ig 20 nM final; read-out: Jurkat hPD1-PDL1 IC50
# How it was run: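 Binding of fluorescent PD-L1-Ig (20 nM final) to Jurkat-PD-1 cells was measured by automated imaging after 1 h, following a 2 h compound pre-treatment at 37° C.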
# T1 sequence (Q15116 25-288): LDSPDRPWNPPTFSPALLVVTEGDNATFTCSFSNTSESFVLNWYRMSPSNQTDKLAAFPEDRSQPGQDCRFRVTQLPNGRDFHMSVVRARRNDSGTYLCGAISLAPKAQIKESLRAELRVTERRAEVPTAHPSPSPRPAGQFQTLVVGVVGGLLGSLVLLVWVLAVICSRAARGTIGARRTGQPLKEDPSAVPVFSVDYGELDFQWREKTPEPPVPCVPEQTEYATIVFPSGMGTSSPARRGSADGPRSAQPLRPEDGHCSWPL
row,Structure (SMILES),IC50
1,Cc1cccc(C[C@@H]2NC(=O)[C@H](CC(=O)O)NC(=O)[C@H](Cc3ccc(OCC(=O)O)cc3)NC(=O)[C@H](CCCNC(=N)N)NC(=O)CSC[C@@H](C(=O)N[C@@H](CCN)C(=O)NCCCCCCCCCCC(=O)O)NC(=O)[C@H](CO)NC(=O)[C@H](C(C)C)NC(=O)[C@H](CC3CCCCC3)NC(=O)[C@H](CCN)NC(=O)[C@@H](CC(C)C)NC(=O)[C@H](CCCN)NC(=O)[C@H](Cc3ccc(OCC(=O)O)cc3)NC(=O)[C@H](Cc3ccc(-c4ccccc4)cc3)NC(=O)[C@H](Cc3ccc(OCC(=O)O)cc3)NC2=O)c1 [Compound 2083] ({CH2CO}-RY(Carboxymethyl)D[Phe(3-Me)]Y(Carboxymethyl)[Bip]Y(Carboxymethyl)[Orn][dL][Dab][Cha]VSC[Dab][Aun]-OH; thioether N-14),8.3 nM
2,Cc1cccc(C[C@@H]2NC(=O)[C@H](CC(=O)O)NC(=O)[C@H](Cc3ccc(OCC(=O)O)cc3)NC(=O)[C@H](CN)NC(=O)CSC[C@@H](C(=O)N[C@@H](CCN)C(=O)NCCCCCCCCCCC(=O)O)NC(=O)[C@H](CO)NC(=O)[C@H](C(C)C)NC(=O)[C@H](CC3CCCCC3)NC(=O)[C@H](CCN)NC(=O)[C@@H](CC(C)C)NC(=O)[C@H](CCCN)NC(=O)[C@H](Cc3ccc(OCC(=O)O)cc3)NC(=O)[C@H](Cc3ccc(-c4ccccc4)cc3)NC(=O)[C@H](Cc3ccc(OCC(=O)O)cc3)NC2=O)c1 [Compound 2084] ({CH2CO}-[Dap]Y(Carboxymethyl)D[Phe(3-Me)]Y(Carboxymethyl)[Bip]Y(Carboxymethyl)[Orn][dL][Dab][Cha]VSC[Dab][Aun]-OH; thioether N-14),12.6 nM
3,Cc1cccc(C[C@@H]2NC(=O)[C@H](CC(=O)O)NC(=O)[C@H](Cc3ccc(OCC(=O)O)cc3)NC(=O)[C@H](CCCNC(=N)N)NC(=O)CSC[C@@H](C(=O)N[C@@H](CCN)C(=O)NCCCCCCCCCCC(=O)O)NC(=O)[C@H]([C@@H](C)O)NC(=O)[C@H](C(C)C)NC(=O)[C@H](CC3CCCCC3)NC(=O)[C@H](CCN)NC(=O)[C@@H](CC(C)C)NC(=O)[C@H](CCCN)NC(=O)[C@H](Cc3ccc(OCC(=O)O)cc3)NC(=O)[C@H](Cc3ccc(-c4ccccc4)cc3)NC(=O)[C@H](Cc3ccc(OCC(=O)O)cc3)NC2=O)c1 [Compound 2085] ({CH2CO}-RY(Carboxymethyl)D[Phe(3-Me)]Y(Carboxymethyl)[Bip]Y(Carboxymethyl)[Orn][dL][Dab][Cha]VTC[Dab][Aun]-OH; thioether N-14),8.6 nM
4,Cc1cccc(C[C@@H]2NC(=O)[C@H](CC(=O)O)NC(=O)[C@H](Cc3ccc(OCC(=O)O)cc3)NC(=O)[C@H]([C@@H](C)O)NC(=O)CSC[C@@H](C(=O)N[C@@H](CCN)C(=O)NCCCCCCCCCCC(=O)O)NC(=O)[C@H]([C@@H](C)O)NC(=O)[C@H](C(C)C)NC(=O)[C@H](CC3CCCCC3)NC(=O)[C@H](CCN)NC(=O)[C@@H](CC(C)C)NC(=O)[C@H](CCCN)NC(=O)[C@H](Cc3ccc(OCC(=O)O)cc3)NC(=O)[C@H](Cc3ccc(-c4ccccc4)cc3)NC(=O)[C@H](Cc3ccc(OCC(=O)O)cc3)NC2=O)c1 [Compound 2086] ({CH2CO}-TY(Carboxymethyl)D[Phe(3-Me)]Y(Carboxymethyl)[Bip]Y(Carboxymethyl)[Orn][dL][Dab][Cha]VTC[Dab][Aun]-OH; thioether N-14),10.2 nM
5,Cc1cccc(C[C@@H]2NC(=O)[C@H](CC(=O)O)NC(=O)[C@H](Cc3ccc(OCC(=O)O)cc3)NC(=O)[C@H](CN)NC(=O)CSC[C@@H](C(=O)N[C@@H](CCCN)C(=O)NCCCCCCCCCCC(=O)O)NC(=O)[C@H]([C@@H](C)O)NC(=O)[C@H](C(C)C)NC(=O)[C@H](CC3CCCCC3)NC(=O)[C@H](CCN)NC(=O)[C@@H](CC(C)C)NC(=O)[C@H](CCN)NC(=O)[C@H](Cc3ccc(OCC(=O)O)cc3)NC(=O)[C@H](Cc3ccc(-c4ccccc4)cc3)NC(=O)[C@H](Cc3ccc(O)cc3)NC2=O)c1 [Compound 2088] ({CH2CO}-[Dap]Y(Carboxymethyl)D[Phe(3-Me)]Y[Bip]Y(Carboxymethyl)[Dab][dL][Dab][Cha]VTC[Orn][Aun]-OH; thioether N-14),14.8 nM
6,Cc1cccc(C[C@@H]2NC(=O)[C@H](CC(=O)O)NC(=O)[C@H](Cc3ccc(OCC(=O)O)cc3)NC(=O)[C@H](CN)NC(=O)CSC[C@@H](C(=O)N[C@@H](CCN)C(=O)NCCCCCCCCCCC(=O)O)NC(=O)[C@H](CO)NC(=O)[C@H](C(C)C)NC(=O)[C@H](CC3CCCCC3)NC(=O)[C@H](CCN)NC(=O)[C@@H](CC(C)C)NC(=O)[C@H](CCCN)NC(=O)[C@H](Cc3ccc(O)cc3)NC(=O)[C@H](Cc3ccc(-c4ccccc4)cc3)NC(=O)[C@H](Cc3ccc(OCC(=O)O)cc3)NC2=O)c1 [Compound 2091] ({CH2CO}-[Dap]Y(Carboxymethyl)D[Phe(3-Me)]Y(Carboxymethyl)[Bip]Y[Orn][dL][Dab][Cha]VSC[Dab][Aun]-OH; thioether N-14),26.1 nM

# Further lines, results first:
row,IC50,Structure (SMILES)
1,15.1 nM,Cc1cccc(C[C@@H]2NC(=O)[C@H](CC(=O)O)NC(=O)[C@H](Cc3ccc(OCC(=O)O)cc3)NC(=O)[C@H](CN)NC(=O)CSC[C@@H](C(=O)N[C@@H](CCN)C(=O)NCCCCCCCCCCC(=O)O)NC(=O)[C@H]([C@@H](C)O)NC(=O)[C@H](C(C)C)NC(=O)[C@H](CC3CCCCC3)NC(=O)[C@H](CCN)NC(=O)[C@@H](CC(C)C)NC(=O)[C@H](CCN)NC(=O)[C@H](Cc3ccc(OCC(=O)O)cc3)NC(=O)[C@H](Cc3ccc(-c4ccccc4)cc3)NC(=O)[C@H](Cc3ccc(O)cc3)NC2=O)c1 [Compound 2087] ({CH2CO}-[Dap]Y(Carboxymethyl)D[Phe(3-Me)]Y[Bip]Y(Carboxymethyl)[Dab][dL][Dab][Cha]VTC[Dab][Aun]-OH; thioether N-14)
2,43.8 nM,Cc1cccc(C[C@@H]2NC(=O)[C@H](CC(=O)O)NC(=O)[C@H](Cc3ccc(OCC(=O)O)cc3)NC(=O)[C@H](Cc3ccc(OCC(=O)O)cc3)NC(=O)CSC[C@@H](C(=O)N[C@@H](CCN)C(=O)NCCCCCCCCCCC(=O)O)NC(=O)[C@H](CO)NC(=O)[C@H](C(C)C)NC(=O)[C@H](CC3CCCCC3)NC(=O)[C@H](CCN)NC(=O)[C@@H](CC(C)C)NC(=O)[C@H](CCCN)NC(=O)[C@H](Cc3ccc(OCC(=O)O)cc3)NC(=O)[C@H](Cc3ccc(-c4ccccc4)cc3)NC(=O)[C@H](C(C)C)NC2=O)c1 [Compound 2089] ({CH2CO}-Y(Carboxymethyl)Y(Carboxymethyl)D[Phe(3-Me)]V[Bip]Y(Carboxymethyl)[Orn][dL][Dab][Cha]VSC[Dab][Aun]-OH; thioether N-14)
3,18.4 nM,Cc1cccc(C[C@@H]2NC(=O)[C@H](CC(=O)O)NC(=O)[C@H](Cc3ccc(OCC(=O)O)cc3)NC(=O)[C@H](CN)NC(=O)CSC[C@@H](C(=O)N[C@@H](CCN)C(=O)NCCCCCCCCCCC(=O)O)NC(=O)[C@H]([C@@H](C)O)NC(=O)[C@H](C(C)C)NC(=O)[C@H](CC3CCCCC3)NC(=O)[C@H](CCN)NC(=O)[C@@H](CC(C)C)NC(=O)[C@H](CCCN)NC(=O)[C@H](Cc3ccc(O)cc3)NC(=O)[C@H](Cc3ccc(-c4ccccc4)cc3)NC(=O)[C@H](Cc3ccc(OCC(=O)O)cc3)NC2=O)c1 [Compound 2090] ({CH2CO}-[Dap]Y(Carboxymethyl)D[Phe(3-Me)]Y(Carboxymethyl)[Bip]Y[Orn][dL][Dab][Cha]VTC[Dab][Aun]-OH; thioether N-14)
4,25.1 nM,Cc1cccc(C[C@@H]2NC(=O)[C@H](CC(=O)O)NC(=O)[C@H](Cc3ccc(OCC(=O)O)cc3)NC(=O)[C@H]([C@@H](C)O)NC(=O)CSC[C@@H](C(=O)N[C@@H](CCN)C(=O)NCCCCCCCCCCC(=O)O)NC(=O)[C@H]([C@@H](C)O)NC(=O)[C@H](C(C)C)NC(=O)[C@H](CC3CCCCC3)NC(=O)[C@H](CCN)NC(=O)[C@@H](CC(C)C)NC(=O)[C@H](CCCN)NC(=O)[C@H](Cc3ccc(O)cc3)NC(=O)[C@H](Cc3ccc(-c4ccccc4)cc3)NC(=O)[C@H](Cc3ccc(OCC(=O)O)cc3)NC2=O)c1 [Compound 2092] ({CH2CO}-TY(Carboxymethyl)D[Phe(3-Me)]Y(Carboxymethyl)[Bip]Y[Orn][dL][Dab][Cha]VTC[Dab][Aun]-OH; thioether N-14)
5,23.2 nM,Cc1cccc(C[C@@H]2NC(=O)[C@H](CC(=O)O)NC(=O)[C@H](Cc3ccc(OCC(=O)O)cc3)NC(=O)[C@H]([C@@H](C)O)NC(=O)CSC[C@@H](C(=O)N[C@@H](CCN)C(=O)NCCCCCCCCCCC(=O)O)NC(=O)[C@H](CO)NC(=O)[C@H](C(C)C)NC(=O)[C@H](CC3CCCCC3)NC(=O)[C@H](CCN)NC(=O)[C@@H](CC(C)C)NC(=O)[C@H](CCCN)NC(=O)[C@H](Cc3ccc(OCC(=O)O)cc3)NC(=O)[C@H](Cc3ccc(-c4ccccc4)cc3)NC(=O)[C@H](Cc3ccc(O)cc3)NC2=O)c1 [Compound 2093] ({CH2CO}-TY(Carboxymethyl)D[Phe(3-Me)]Y[Bip]Y(Carboxymethyl)[Orn][dL][Dab][Cha]VSC[Dab][Aun]-OH; thioether N-14)
6,6.6 nM,Cc1cccc(C[C@@H]2NC(=O)[C@H](CC(=O)O)NC(=O)[C@H](Cc3ccc(OCC(=O)O)cc3)NC(=O)[C@H](CCCNC(=N)N)NC(=O)CSC[C@@H](C(=O)N[C@@H](CCN)C(=O)NCCCCCCCCCCC(=O)O)NC(=O)[C@H](CCO)NC(=O)[C@H](C(C)C)NC(=O)[C@H](CC3CCCCC3)NC(=O)[C@H](CCN)NC(=O)[C@@H](CC(C)C)NC(=O)[C@H](CCCN)NC(=O)[C@H](Cc3ccc(OCC(=O)O)cc3)NC(=O)[C@H](Cc3ccc(-c4ccccc4)cc3)NC(=O)[C@H](Cc3ccc(OCC(=O)O)cc3)NC2=O)c1 [Compound 2094] ({CH2CO}-RY(Carboxymethyl)D[Phe(3-Me)]Y(Carboxymethyl)[Bip]Y(Carboxymethyl)[Orn][dL][Dab][Cha]V[hSer]C[Dab][Aun]-OH; thioether N-14)
